The results in this text go back to US11304939B2, “Methods for treating oral cancers” (Chang Gung University, priority 2020, dated 2022).

The test system of assay [1] is SAS cells. Kind of assay: MTT cell viability assay, SAS cells. In kind it is cell-based. The conditions noted are these: 48 hours; for cell viability / proliferation (MTT): vs vehicle control. Here is the method:
(§1) For cell viability assay, approximately 5×10^4 cells were seeded into each well of a 96-well plate, and treated with vehicle control or inhibitors at the indicated concentrations for 48 hours in complete medium, followed by MTT viability assay. The absorbance was read at 540 nm in a multiwell spectrophotometer (SpectraMax M2; Molecular Devices, USA). All samples were run in triplicate. For apoptosis assay, cells were plated in 6-well dishes, and treated with vehicle control or various inhibitors at the indicated concentrations for 48 hours. Cells were then harvested, washed with PBS, and stained with 2 μl an FITC-conjugated Annexin V antibody (Invitrogen, USA) and 50 μg/ml propidium iodide (Sigma-Aldrich, USA), followed by flow cytometry analysis (Attune NxT; Invitrogen, USA) and data analysis by FlowJo software (Tree Star, Inc.).

In assay [2] the test system is OEC-M1 cells. Kind of assay: MTT cell viability assay, OEC-M1 cells. Conditions: 48 hours; for cell viability / proliferation (MTT): vs vehicle control. The class given is cell-based. Here is the method:
as §1
Background: Formazan colour is commonly taken as a measure of viable cells.

Assay [3] has as its system SAS cells. Put plainly: colony-forming assay, SAS cells. The class given is cell-based.
The test system of assay [4] is OEC-M1 cells. Kind of assay: colony-forming assay, OEC-M1 cells. In kind it is cell-based.
In assay [5] the test system is SAS cells. Put plainly: apoptosis assay (Annexin V and PI staining), SAS cells. The class given is cell-based. Conditions: 48 hours. Here is the method: as §1
Assay [6] relates to OC3 cells. Kind of assay: apoptosis assay (Annexin V and PI staining), OC3 cells. In kind it is cell-based. Conditions: 48 hours. As for the experimental part: as §1
The test system of assay [7] is OEC-M1 cells. Kind of assay: apoptosis assay (Annexin V and PI staining), OEC-M1 cells. The class given is cell-based. The conditions noted are these: 48 hours. Here is the method:
as §1

Assay [8] relates to SAS cells xenograft. Put plainly: SAS cell line-derived xenograft (OSCC CDX) tumor growth. The class given is in vivo, NOD/SCID mice. As for the experimental part: NOD/SCID mice and NOD.Cg-Prkdcscid Il2rgtm1Wjl/SzJ (NSG) mice were housed in an animal facility at Chang Gung University. For SAS cell line-derived xenograft (CDX) animal model, SAS cells were prepared in serum-free DMEM (5×10^6 cells per ml). SAS cell suspensions (100 μl) were injected subcutaneously into NOD/SCID mice (6-8 weeks), and tumors were established after 3-4 weeks. Once xenografts reached 300-500 mm^3, mice were randomly divided into the treatment groups or control groups. PF477736 was used at the dose of 10 or 20 mg/kg, and administered intraperitoneally 4 days/week. BYL719 was used at the dose of 25 or 50 mg/kg, and administered orally 5 days/week. Cisplatin was used at the dose of 5 mg/kg, and administered intraperitoneally 2 days/week. During the course of treatment (two to three weeks), the tumor size was monitored twice weekly, and the tumor volumes were calculated.

The test system of assay [9] is patient #1 PDX. Put plainly: OSCC PDX model, patient #1, tumor growth. In kind it is in vivo, NSG mice. The conditions noted are these: PF477736 20 mg/kg; for growth of PDX tumors vs control: Cisplatin 5 mg/kg, combined vs control p=0.0024. Here is the method: (§2) For OSCC PDX animal model, three patients of newly diagnosed were recruited, and written consents were obtained in accordance with the protocols approved by the Institutional Review Board of Chang Gung Memorial Hospital. Patient tumor explants were prepared from surgical specimens, and engrafted into NSG mice within 2 hours. Briefly, fresh tumor tissues were rinsed in PBS containing an antibiotic-antimycotic solution (Gibco, USA), and chopped into small pieces (˜1 mm^3). Each NSG mouse was subcutaneously grafted with 50-100 mg tumors in the left flank. When tumors reached 400-500 mm^3 in size, animals were randomly assigned into control and different treatment groups. Treatments for each single drug were the same as those used in the SAS CDX model as described above. For combined treatments, for the combination therapy of Cisplatin and PF477736, Cisplatin was used at the dose of 5 mg/kg, and administered intraperitoneally 2 days/week for one week; whilst PF477736 was used at the dose of 20 mg/kg, and administered intraperitoneally 4 days/week for one week; and for the combination therapy of PF477736 and BYL719, PF477736 was used at the dose of 20 mg/kg, and administered intraperitoneally 4 days/week for one week; whilst BYL719 was used at the dose of 50 mg/kg, and administered orally 5 days/week for two weeks. Tumors were measured with calipers, and the volume was calculated as ½×length×width^2. Three PDX models in total were evaluated for response to single treatments or combined treatments. All animal experiments were approved by the Institutional Animal Care and Use Committee of Chang Gung University.

Assay [10] relates to patient #2 PDX. Put plainly: OSCC PDX model, patient #2, tumor growth. The class given is in vivo, NSG mice. Conditions: PF477736 20 mg/kg; for growth of PDX tumors vs control: Cisplatin 5 mg/kg, combined vs control p=0.006. Here is the method:
as §2

For assay [11], the system named is patient #3 PDX. Kind of assay: OSCC PDX model, patient #3, tumor growth. In kind it is in vivo, NSG mice. Conditions: Cisplatin 5 mg/kg, PF477736 20 mg/kg, combined vs control p=0.03. Here is the method: For OSCC PDX animal model, three patients of newly diagnosed were recruited, and written consents were obtained in accordance with the protocols approved by the Institutional Review Board of Chang Gung Memorial Hospital. Patient tumor explants were prepared from surgical specimens, and engrafted into NSG mice within 2 hours. Briefly, fresh tumor tissues were rinsed in PBS containing an antibiotic-antimycotic solution (Gibco, USA), and chopped into small pieces (˜1 mm^3). Each NSG mouse was subcutaneously grafted with 50-100 mg tumors in the left flank. When tumors reached 400-500 mm^3 in size, animals were randomly assigned into control and different treatment groups. Treatments for each single drug were the same as those used in the SAS CDX model as described above. […] Tumors were measured with calipers, and the volume was calculated as ½×length×width^2. Three PDX models in total were evaluated for response to single treatments or combined treatments. […]

Assay [12] concerns the target T1, CHK1 (Homo sapiens, UniProt O14757).
T1 sequence (O14757 1-476): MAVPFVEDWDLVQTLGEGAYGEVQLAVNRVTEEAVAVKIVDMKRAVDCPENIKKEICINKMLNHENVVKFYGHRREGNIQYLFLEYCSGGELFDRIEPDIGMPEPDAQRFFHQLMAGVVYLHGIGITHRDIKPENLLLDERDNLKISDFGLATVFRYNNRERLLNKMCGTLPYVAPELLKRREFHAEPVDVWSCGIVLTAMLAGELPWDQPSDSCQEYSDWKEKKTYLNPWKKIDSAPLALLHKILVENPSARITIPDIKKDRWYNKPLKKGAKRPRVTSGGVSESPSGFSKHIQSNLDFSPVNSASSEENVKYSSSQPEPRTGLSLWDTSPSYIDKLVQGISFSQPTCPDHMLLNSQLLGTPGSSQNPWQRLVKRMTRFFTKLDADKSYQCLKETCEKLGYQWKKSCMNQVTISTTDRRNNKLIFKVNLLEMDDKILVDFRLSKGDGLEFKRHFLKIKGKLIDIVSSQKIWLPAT
Kind of assay: immunoblotting of UV-induced phosphorylation of CHK1 at Ser296 in SAS cells. Conditions: SAS cells after UV exposure. (A western blot detects proteins with antibodies after separation by electrophoresis.)
Procedure: After treatments, whole-cell lysates from each sample were prepared by lysed with RIPA lysis buffer (1% NP—40, 20 mM Tris-HCl (pH 7.5), 150 mM NaCl, 1 mM Na3VO4, 5 mM EDTA (pH 8.0), 10% glycerol, PMSF, and 0.2% protease inhibitor) for 15-30 minutes on ice, and centrifuged at 15,000×g for 20 min at 4° C. Equal amounts of protein from each sample were fractionated by SDS-PAGE, and transferred to a PVDF membrane, which was incubated with the appropriate primary antibody. Proteins were detected with HRP-conjugated secondary antibodies and ECL substrate (PerkinElmer, USA).
On the molecular level, the biochemical effects of the three CHK1 inhibitors in SAS cells were characterized. DNA damage was first induced by UV exposure, and the CHK1 inhibitors were then applied to the injured cells.

The subject of assay [13] is AKT. Kind of assay: immunoblotting of phosphorylation of AKT. The class given is cell-based. The conditions noted are these: after UV exposure. As for the experimental part: After treatments, whole-cell lysates from each sample were prepared by lysed with RIPA lysis buffer (1% NP_40, 20 mM Tris-HCl (pH 7.5), 150 mM NaCl, 1 mM Na3VO4, 5 mM EDTA (pH 8.0), 10% glycerol, PMSF, and 0.2% protease inhibitor) for 15-30 minutes on ice, and centrifuged at 15,000×g for 20 min at 4° C. Equal amounts of protein from each sample were fractionated by SDS-PAGE, and transferred to a PVDF membrane, which was incubated with the appropriate primary antibody. Proteins were detected with HRP-conjugated secondary antibodies and ECL substrate (PerkinElmer, USA).
In the present study, the efficacy of the PI3K inhibitors (e.g., BYL719, GDC-0941, and GSK1059615) toward eliminating OSCC cell lines (including SAS, OEC-M1, and OC3) was examined. First of all, cell proliferation assays after the PI3K inhibitors (i.e., BYL719, GDC-0941, and GSK1059615) treatments were performed, and the results were provided in FIG. 3A. […] The IC50 for BYL719 in the SAS, OC3, and OECM1 cell lines ranged from 8 to 20 μM (FIG. 3A). Another indication for measuring anti-cancer activity was by investigating the colony-forming ability of SAS and OEC-M1 cells treated with BYL719. […] The effects for PI3K inhibitors on the PI3K/AKT/mTOR signaling pathway were studied as well.

In assay [14] the test system is SAS, OC3, and OEC-M1 cells. Kind of assay: MTT cell viability assay, one range over three OSCC cell lines. In kind it is cell-based. The conditions noted are these: OECM1. Here is the method: as §1
Assay [15] deals with OSCC cells. Put plainly: apoptosis assay (Annexin V staining), OSCC cells. The class given is cell-based. The conditions noted are these: increasing concentration. As for the experimental part:
as §1

SMILES strings stand for the structures.

As for `Cn1cc(-c2[nH]c3cc(NC(=O)[C@H](N)C4CCCCC4)cc4c3c2C=NNC4=O)cn1` [PF477736, (R)-2-amino-2-cyclohexyl-N-(2-(1-methyl-1H-pyrazol-4-yl)-6-oxo-5,6-dihydro-1H-[1,2]diazepino[4,5,6-cd]indol-8-yl)acetamide], the “cell viability / proliferation (MTT)” value in [1] and in [2] was “dose-dependent inhibition” in each case. The IC50 in assay [1] (MTT, read-out: half-maximal inhibitory concentration (IC50)) was 0.12 to 0.4 µM; in [2] (OECM1, MTT, read-out: half-maximal inhibitory concentration (IC50)), 10 µM. Further, the colony-forming ability entry in assay [3] and in assay [4] was “significantly impaired the colony-forming ability” in each case. For the same compound, the “cell apoptosis (Annexin V and PI staining)” value in assay [5], in assay [6] and in assay [7] was “significantly exacerbated cell apoptosis” throughout. The “tumor growth vs control” value in [8] (10 mg/kg intraperitoneally 4 days/week, p=0.083) is listed as “could barely suppress tumor growth”; in [8] (20 mg/kg intraperitoneally 4 days/week, p=0.081), “could barely suppress tumor growth”. The “growth of PDX tumors vs control” value in [9], in [10] and in assay [11] was “partially but not significantly inhibit the growth” in each case. The “phosphorylation of CHK1 at Ser296” value in assay [12] is reported as “specifically reduce phosphorylation of CHK1”.
Consider `N.N.[Cl][Pt][Cl]` [Cisplatin], for which the “tumor growth vs control” value in assay [8] (5 mg/kg intraperitoneally 2 days/week, p=0.03) is reported as “exhibited an ability to inhibit tumor growth”. For the same compound, the “growth of PDX tumors vs control” value in assay [9], in assay [10] and in assay [11] was “partially but not significantly inhibit the growth” throughout.
With `COc1cccc(OCCCN)c1-c1cc(Nc2cnc(C#N)cn2)n[nH]1` [LY2606368, Prexasertib], the “cell viability / proliferation (MTT)” value in assay [1] and in assay [2] was “dose-dependent inhibition” each time.
Regarding `CS(=O)(=O)N1CCN(Cc2cc3nc(-c4cccc5[nH]ncc45)nc(N4CCOCC4)c3s2)CC1` [GDC-0941, Pictilisib], the “cell viability / proliferation (MTT)” value in [1] and in [2] was “clear reduction in proliferation” throughout. In assay [13], the “phosphorylation of AKT” value is listed as “specifically inhibited phosphorylation of AKT”.
Turning to `O=C1NC(=O)/C(=C/c2ccc3nccc(-c4ccncc4)c3c2)S1` [GSK1059615, (Z)-5-((4-(pyridin-4-yl)quinolin-6-yl)methylene)thiazolidine-2,4-dione], the “cell viability / proliferation (MTT)” value in assay [1] and in [2] was “clear reduction in proliferation” throughout. Besides, in assay [13], the “phosphorylation of AKT” value is listed as “specifically inhibited phosphorylation of AKT”.
In the case of `Cc1nc(NC(=O)N2CCC[C@H]2C(N)=O)sc1-c1ccnc(C(C)(C)C(F)(F)F)c1` [BYL719, Alpelisib], the “cell viability / proliferation (MTT)” value in [1] and in assay [2] was “clear reduction in proliferation” each time. The same compound showed an IC50 in assay [14] of 8 to 20 µM. For the same compound, the colony-forming ability entry in assay [3] and in assay [4] was “compromised in a dose-dependent manner” in each case. For the same compound, the “cell apoptosis (Annexin V staining)” value in assay [15] is reported as “gradually elevation in apoptosis”. Also, the “phosphorylation of AKT” value in assay [13] is listed as “specifically inhibited phosphorylation of AKT”. In addition, the “tumor growth vs control” value in assay [8] (50 mg/kg orally 5 days/week, p=0.011) is “significantly suppressed tumor growth”; in [9] (BYL719 50 mg/kg, monotherapy p=0.66, combined p=0.844), “could not inhibit tumor growth”; in assay [10] (BYL719 50 mg/kg, monotherapy p=0.16, combined p=0.036) it was “slightly inhibited tumor growth”.
